Patent US6369225B1, “Compounds having activity as inhibitors of cytochrome P450RAI” (Allergan Sales, Inc., priority 2000, dated 2002)

Columns and labels:
skin of hairless mice = assay: topical skin irritation test in hairless mice; format: in vivo, mouse; conditions: topical in acetone, once daily days 1 through 5, mean ±SD, range 0-21
Text: Mice were housed individually throughout the dosing period.
Doses are disclosed as nmol/25 g.
The grading scale used is as follows:
Values can range from 0-9.
Values can range from 0-8.

P450RAI-1 = target: T1, P450RAI-1 (Homo sapiens, UniProt O43174); assay: P450RAI-1 cell-based inhibitor assay; conditions: P450RAI-1 stably transfected HeLa cells, [3H]-RA metabolism, 3 hours at 37° C.; read-out: P450RAI INHIBITION DATA INTACT HELA IC50
T1 construct: expressed in transfected cells; host or cells: HeLa cells, stably transfected, hygromycin selection
T1 sequence (O43174 1-497): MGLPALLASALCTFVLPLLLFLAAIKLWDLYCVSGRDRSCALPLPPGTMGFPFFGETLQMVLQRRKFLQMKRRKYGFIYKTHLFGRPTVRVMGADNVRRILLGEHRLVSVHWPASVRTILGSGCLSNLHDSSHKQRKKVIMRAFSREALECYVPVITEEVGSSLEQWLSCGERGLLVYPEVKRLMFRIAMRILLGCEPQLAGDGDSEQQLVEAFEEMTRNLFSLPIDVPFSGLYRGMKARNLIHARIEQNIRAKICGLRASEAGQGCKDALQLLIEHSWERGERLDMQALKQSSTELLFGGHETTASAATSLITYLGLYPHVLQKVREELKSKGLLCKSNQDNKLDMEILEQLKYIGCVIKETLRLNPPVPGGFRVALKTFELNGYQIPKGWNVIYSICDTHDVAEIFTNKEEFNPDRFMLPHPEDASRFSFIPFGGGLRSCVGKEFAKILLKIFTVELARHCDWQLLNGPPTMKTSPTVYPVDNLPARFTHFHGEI
Description: P450RAI-1 stably transfected HeLa cells are maintained in […] tissue culture dishes in Modified Eagle's Medium (MEM) containing 10% Fetal Bovine Serum (FBS) and 100 μg/ml hygromycin. Exponentially growing cells are harvested by incubating in trypsin. Cells are then washed with 1× Phosphate Buffered Saline (PBS) and plated in a 48-well plate at 5×10^5 cells in 0.2 ml MEM medium containing 10% FBS and 0.05 μCi[^3H]-RA in the presence or absence of increasing concentrations of the test compounds. The compounds are diluted in 100% DMSO and then added in triplicate wells at either 10, 1 or 0.1 μM final concentration. As a positive control for RA metabolism inhibition, cells are also incubated with ketoconazole at 100, 10 and 1 μM. Cell are incubated for 3 hours at 37° C. […] The water soluble radioactivity is quantified using a β-scintillation counter. IC50 values represent the concentration of inhibitor required to inhibit all-trans-RA metabolism by 50 percent and are derived manually from log-transformed data.

RARα = target: T2, RARα (Homo sapiens, UniProt P10276); assay: ligand binding assay, RARα; conditions: Kd line of EC50/(EFFICACY)/Kd, read-out: RAR Kd α
T2 sequence (P10276 1-462): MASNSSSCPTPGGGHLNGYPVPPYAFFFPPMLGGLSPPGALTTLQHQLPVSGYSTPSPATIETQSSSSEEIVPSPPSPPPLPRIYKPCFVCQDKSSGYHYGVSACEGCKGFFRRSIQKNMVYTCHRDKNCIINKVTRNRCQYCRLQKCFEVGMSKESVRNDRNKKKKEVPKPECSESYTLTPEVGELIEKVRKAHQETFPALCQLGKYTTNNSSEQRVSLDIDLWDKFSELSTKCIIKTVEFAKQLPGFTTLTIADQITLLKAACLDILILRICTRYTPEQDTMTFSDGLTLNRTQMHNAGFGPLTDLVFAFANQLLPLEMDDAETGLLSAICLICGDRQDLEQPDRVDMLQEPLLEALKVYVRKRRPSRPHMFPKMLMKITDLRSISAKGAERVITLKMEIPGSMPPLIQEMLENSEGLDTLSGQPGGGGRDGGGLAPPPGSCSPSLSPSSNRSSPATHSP
Text: (§1) Assays described below measure the ability of a compound to bind to, and/or activate various retinoid receptor subtypes. When in these assays a compound binds to a given receptor subtype and activates the transcription of a reporter gene through that subtype, then the compound is considered an agonist of that receptor subtype. […] In the below described assays the ability of the compounds to bind to RARα, RARβ, RARγ, RXRα, RXRβ and RXRγ receptors, and the ability or inability of the compounds to activate transcription of a reporter gene through these receptor subtypes can be tested.
(§2) A holoreceptor transactivation assay and a ligand binding assay which measure the antagonist/agonist like activity of the compounds of the invention, or their ability to bind to the several retinoid receptor subtypes, respectively, are described in published PCT Application No. WO WO93/11755 (particularly on pages 30-33 and 37-41) published on Jun. 24, 1993, the specification of which is also incorporated herein by reference. A detailed experimental procedure for holoreceptor transactivations has been described by Heyman et al. Cell 68, 397-406, (1992); Allegretto et al. J. Biol. Chem. 268, 26625-26633, and Mangelsdorf et al. The Retinoids: Biology, Chemistry and Medicine, pp 319-349, Raven Press Ltd., New York, which are expressly incorporated herein by reference. The results obtained in this assay are expressed in EC50 numbers, as they are also in the chimeric receptor transactivation assay. The results of ligand binding assay are expressed in Kd numbers. (See Cheng et al. Biochemical Pharmacology Vol. 22 pp 3099-3108, expressly incorporated herein by reference.)
(§3) The results if the ligand binding assay for several preferred compounds of the invention are included in Table 1.

RARγ = target: T3, RARγ (Homo sapiens, UniProt P13631); assay: ligand binding assay, RARγ; conditions: Kd line of EC50/(EFFICACY)/Kd, read-out: RAR Kd γ
T3 sequence (P13631 1-454): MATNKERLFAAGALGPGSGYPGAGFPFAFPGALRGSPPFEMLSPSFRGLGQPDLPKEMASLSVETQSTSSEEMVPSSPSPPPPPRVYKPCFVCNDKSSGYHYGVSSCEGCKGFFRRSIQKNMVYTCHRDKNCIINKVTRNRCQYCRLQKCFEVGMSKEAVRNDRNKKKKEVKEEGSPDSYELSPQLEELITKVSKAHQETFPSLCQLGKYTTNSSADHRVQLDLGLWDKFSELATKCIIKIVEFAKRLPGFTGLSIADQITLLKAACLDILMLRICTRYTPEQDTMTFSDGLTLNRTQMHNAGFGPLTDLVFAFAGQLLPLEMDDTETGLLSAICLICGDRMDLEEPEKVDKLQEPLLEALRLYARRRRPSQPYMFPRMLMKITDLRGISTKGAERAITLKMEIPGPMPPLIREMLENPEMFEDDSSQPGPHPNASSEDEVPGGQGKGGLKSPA
Text: as §1, §2, §3

RARβ = target: T4, RARβ (Homo sapiens, UniProt P10826); assay: ligand binding assay, RARβ; conditions: Kd line of EC50/(EFFICACY)/Kd, read-out: RAR Kd β
T4 sequence (P10826 1-455): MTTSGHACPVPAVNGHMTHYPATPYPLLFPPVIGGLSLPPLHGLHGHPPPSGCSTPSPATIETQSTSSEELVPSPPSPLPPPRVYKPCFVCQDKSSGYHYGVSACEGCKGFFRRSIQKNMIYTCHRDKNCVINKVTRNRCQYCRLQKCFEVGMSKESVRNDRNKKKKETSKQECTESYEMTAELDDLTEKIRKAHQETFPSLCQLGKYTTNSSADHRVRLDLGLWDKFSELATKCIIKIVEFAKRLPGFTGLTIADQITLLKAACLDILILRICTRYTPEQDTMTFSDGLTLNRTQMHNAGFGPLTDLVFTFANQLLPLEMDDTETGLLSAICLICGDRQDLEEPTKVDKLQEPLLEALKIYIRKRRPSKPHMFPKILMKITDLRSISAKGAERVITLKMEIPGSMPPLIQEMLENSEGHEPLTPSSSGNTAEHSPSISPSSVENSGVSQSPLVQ
Text: as §1
as §2, with “A detailed experimental procedure for holoreceptor transactivations has been described by Heyman et al. Cell 68, 397-406, (1992); Allegretto et al. J. Biol. Chem. 268, 26625-26633, and Mangelsdorf et al. The Retinoids: Biology, Chemistry and Medicine, pp 319-349, Raven Press Ltd., New York, which are expressly incorporated herein by reference.” left out

Structure (SMILES) | Cutaneous Toxicity Score (Blackjack Score) (skin of hairless mice; 100 nmole (nmol/25 g)) | Cutaneous Toxicity Score (Blackjack Score) (skin of hairless mice; 1000 nmole (nmol/25 g)) | IC50 (P450RAI-1) | Cutaneous Toxicity Score (Blackjack Score) (skin of hairless mice; 300 nmole (nmol/25 g)) | Kd (RARα) | Kd (RARγ) | Kd (RARβ)
CC1(C)CCC(=O)c2ccc(C#Cc3ccc(CC(=O)O)c(F)c3)cc21 [Compound 15, [2-Fluoro-4-(8,8-dimethyl-5-oxo-5,6,7,8-tetrahydro-naphthalene-2-yl-ethynyl)phenyl]-acetic Acid] | 1 ± 1 | 5 ± 2 |  |  |  |  | 
CN(C1CC1)C1CCC(C)(C)c2cc(C#Cc3ccc(CC(=O)O)c(F)c3)ccc21 (stereo not shown) [Compound 18, [4-(5-(Cyclopropyl-methyl-amino)-8,8-dimethyl-5,6,7,8-tetrahydro-naphthalene-2-yl-ethynyl)-2-fluoro-phenyl]-acetic Acid] | 0 ± 0 | 10 ± 2 | 1100 nM | 5 ± 2 |  |  | 
CC1(C)CN(C2CC2)Cc2ccc(C#Cc3ccc(CC(=O)O)c(F)c3)cc21 [Compound 22, [4-(2-Cyclopropyl-4,4-dimethyl-1,2,3,4-tetrahydro-isoquinoline-6-yl-ethynyl)-2-fluoro-phenyl]-acetic Acid] | 0 ± 0 | 1 ± 1 | 1600 nM | 0 ± 0 |  |  | 
CC1(C)CC2(CC2)Oc2c(C3CC3)cc(C#Cc3ccc(CC(=O)O)cc3)cc21 [Compound 48, Benzeneacetic Acid, 4-[(8-cyclopropyl-3,4-dihydro-4,4-dimethylspiro[2H-1-benzopyran-2,1′-cyclopropane]-6-yl)ethynyl]-] | 1 ± 1 | 7 ± 2 | 30 nM | 3 ± 1 |  |  | 
CC1(C)CC2(CC2)Oc2c(C3CC3)cc(C#Cc3ccc(CC(=O)O)c(F)c3)cc21 [Compound 50, 4-[(8-Cyclopropyl-3,4-dihydro-4,4-dimethylspiro[2H-1-benzopyran-2,1′-cyclopropane]-6-yl)ethynyl]-2-fluoro-benzeneacetic Acid] | 1 ± 0 | 8 ± 2 | 14 nM | 3 ± 2 |  |  | 
CC1(C)CC2(CC2)Oc2c(C3CC3)cc(C(=O)Oc3ccc(CC(=O)O)cc3)cc21 [Compound 58, Spiro[2H-1-benzopyran-2,1′-cyclopropane]-6-carboxylic Acid, 8-cyclopropyl-3,4-dihydro-4,4-dimethyl-, 4-(carboxymethyl)phenyl Ester] | 0 ± 0 | 0 ± 0 | 180 nM | 0 ± 0 |  |  | 
Cc1cc(C#Cc2ccc(CC(=O)O)cc2)ccc1C1(OCC(C)(C)C)CC1 [Compound 90, {4-[4-[1-(2,2-Dimethylpropyloxy)-cyclopropyl]-3-methyl-phenylethynyl]-phenyl}-acetic Acid] |  |  | 950 nM |  | > 10000 nM | > 10000 nM | > 10000 nM
CCc1cc(C#Cc2ccc(CC(=O)O)cc2)ccc1C1(OCc2ccccc2)CC1 [Compound 94, {4-[4-(1-Benzyloxycyclopropyl)-3-ethyl-phenylethynyl]-phenyl}-acetic Acid] |  |  | > 10000 nM |  | > 10000 nM | > 10000 nM | > 10000 nM
CC1(C)CCC(n2ccnc2)c2ccc(C#Cc3ccc(CC(=O)O)cc3)cc21 (stereo not shown) [Compound 137, [4-(5-Imidazol-1-yl-8,8-dimethyl-5,6,7,8-tetrahydro-naphthalen-2-yl-ethynyl)-phenyl]-acetic Acid] | 1 ± 1 | 5 ± 2 | 100 nM | 1 ± 1 |  |  | 
